Consider 7 molecules from patent US20170216240A1, “METHODS FOR MODULATING IKS CHANNEL ACTIVITY” (UNIVERSITY OF MIAMI, priority 2014, published 2017).

Each structure is given as a SMILES string. Values joined by “and” are separate entries in the source; they are usually repeats but may differ in a detail not shown here. Equal entries are not always repeated. Where two headings read alike, the source gives them in different places.

One series has as its target T1, Kv7.1/KCNE1 (Homo sapiens, UniProt P51787).
T1 construct: expressed in transfected cells; host or cells: Xenopus laevis oocytes (cRNA co-injection)
Kind of series: G(V) shift of Kv7.1 co-expressed with KCNE1 in Xenopus oocytes, two-electrode voltage-clamp. The format is cell-based. The following applies: for ΔV1/2 ± SEM (G(V) shift): Kv7.1/E1; for pKa: human, Xenopus oocytes co-expressing human Kv7.1 and KCNE1, read-out: apparent pKa (pH of c0.5). An excerpt: (§1) cDNAs encoding human Kv7.1 (GEnBAnk Acc. No. NM_000218) and KCNE1 (NM_000219) were subcloned into the expression vectors pGEM or pXOOM, containing the 5′- and 3′-untranslated regions for Xenopus laevis β-globin as well as a poly-A segment (Jespersen et al., Biotechniques 32, 536-538, 540 (2002)). The truncated KCNE1 construct KCNE1ΔC was constructed by introducing a Stop codon at position 67 using Quikchange site-directed mutagenesis kit (Qiagen). The construct was fully sequenced to ensure proper mutation and absence of unwanted mutations (sequencing by Genewiz). The concatemers E1-Kv7.1-Kv7.1 and E1-Kv7.1 were provided by Dr. R. S. Kass at Columbia University, and can be prepared as described in Chan et al. Journal of General Physiology 132(2), 135-144, (2012)). The E1-Kv7.1 construct was made by linking the C-terminus of KCNE1 to the N-terminus of KCNQ1. The E1-Kv7.1-Kv7.1 construct was made by digesting the E1-Kv7.1 and a Kv7.1-Kv7.1 dimer with Xho1 and inserting the 2-kb fragment from the Kv7.1-Kv7.1 dimer digest into the cut KCNE1-Kv7.1 construct. The DNA encoding E1-Kv7.1-Kv7.1 and E1-Kv7.1 were in the pGEM vector and contained mutations to make the constructs suitable for voltage-clamp fluorometry recordings (Wang et al., J Biol Chem 273, 34069-34074 (1998)). The original KCNE1 and Kv7.1 sequences were therefore removed, one at a time, from the pGEM vector using different restriction enzymes (New England Biolabs). Sequences were separated using gel electrophoresis and harvested using Qiagen gel extraction kit. Corresponding wild type sequences were ligated into the construct using T4 Ligase (New England Biolabs). To ensure correct sequence the constructs were sequenced (Genewiz) and tested with different restriction enzymes in combination with gel electrophoresis to measure length and conformation of the gene. cRNA for injection of all constructs was prepared from linearized DNA using the T7 mMessage mMachine transcription kit (Ambion) according to the manufactures instructions. RNA quality was checked by gel electrophoresis, and RNA concentrations were quantified by UV spectroscopy.
(§2) Xenopus laevis oocytes were isolated and maintained (Bentzen, B. H. et al. Neuropharmacology 51, 1068-1077 (2006)). Approximately 50 nl cRNA (50 ng Kv7.1, KCNE1-Kv7.1-Kv7.1 or KCNE1-Kv7.1 alternatively 25 ng Kv7.1 together with 8 ng KCNE1 or KCNE1ΔC) was injected into each oocyte using a Nanojet microinjector (Drummond). Electrophysiological experiments were made 2-5 days after injection. Currents were measured at room temperature with the two-electrode voltage-clamp technique (CA-1B Dagan amplifier). Currents were sampled at 1-3.3 kHz, filtered at 500 Hz, and not leakage corrected. […] A control solution containing (in mM): 88 NaCl, 1 KCl, 15 HEPES, 0.4 CaCl2, and 0.8 MgCl2 was used. NaOH was added to adjust pH to 7.4, yielding a final sodium concentration of about 100 mM. The holding voltage was generally set to −80 mV. Activation curves were generally elicited by stepping to test voltages between −110 and +60 mV (2-4 s durations and 10 mV increments) followed by a tail voltage of −30 mV. For recordings of Kv7.1 at pH 9 and pH 10, the holding voltage was set to more negative voltages because the largest DHA-induced shifts induced channel opening already at −80 mV. […] Therefore, in arachidonyl amine experiments a brief hyperpolarizing pulse of 50 ms to −120 mV was introduced between the test voltage and the tail voltage to relief the channels from inactivation.
(§3) Test compounds were dissolved in 99.5% ethanol to a concentration of 100 mM and stored at −20° C. (Börjesson et al., Biophys J 95, 2242-2253 (2008); Börjesson et al., Biophys J 98, 396-403 (2010)). Shortly before experiments, test compounds were diluted in control solution to the desired test concentration. Pure control solution was added to the bath using a gravity-driven perfusion system. […]
(Two-electrode voltage clamp holds a large cell at a set potential and records current.)

Another series deals with Kv7.1 (Homo sapiens, UniProt P51787). Kind of series: G(V) shift of Kv7.1 expressed in Xenopus laevis oocytes, two-electrode voltage-clamp. Type of series: cell-based.
Text: as §1, §2, §3

Another series deals with KCNE1-Kv7.1-Kv7.1 (Homo sapiens, UniProt P15382+P51787). The series can be described thus: G(V) shift of KCNE1-Kv7.1-Kv7.1 concatemer (4:2 stoichiometry) in Xenopus oocytes. The following applies: 70 μM; for ΔV1/2 ± SEM (G(V) shift): E1-Kv7.1-Kv7.1. The format is cell-based.
Text: (§4) As used herein, the terms “KCNE1-Kv7.1” and “KCNE1-Kv7.1-Kv7.1” refer to concatemers of Kv7.1 and KCNE1 in 4:4 and 4:2 stoichiometry, respectively.
as §1, with “The original KCNE1 and Kv7.1 sequences were therefore removed, one at a time, from the pGEM vector using different restriction enzymes (New England Biolabs). Sequences were separated using gel electrophoresis and harvested using Qiagen gel extraction kit. Corresponding wild type sequences were ligated into the construct using T4 Ligase (New England Biolabs). To ensure correct sequence the constructs were sequenced (Genewiz) and tested with different restriction enzymes in combination with gel electrophoresis to measure length and conformation of the gene. cRNA for injection of all constructs was prepared from linearized DNA using the T7 mMessage mMachine transcription kit (Ambion) according to the manufactures instructions.” left out
(§5) Xenopus laevis oocytes were isolated and maintained (Bentzen, B. H. et al. Neuropharmacology 51, 1068-1077 (2006)). […] Currents were measured at room temperature with the two-electrode voltage-clamp technique (CA-1B Dagan amplifier). […]
(§6) Xenopus laevis oocyte data were acquired using either Pulse software (HEKA) or Clampex 10.2 (Axon Instruments), and analyzed with Clampfit 10 (Axon Instruments) and GraphPad Prism 4 (GraphPad Software). […]

The target of the next series is KCNE1-Kv7.1 (Homo sapiens, UniProt P15382+P51787). The series can be described thus: G(V) shift of KCNE1-Kv7.1 concatemer (4:4 stoichiometry) in Xenopus oocytes. The following applies: 70 μM; for ΔV1/2 ± SEM (G(V) shift): E1-Kv7.1. Type of series: cell-based.
Text: as §4
as §1, with “The original KCNE1 and Kv7.1 sequences were therefore removed, one at a time, from the pGEM vector using different restriction enzymes (New England Biolabs). Sequences were separated using gel electrophoresis and harvested using Qiagen gel extraction kit. Corresponding wild type sequences were ligated into the construct using T4 Ligase (New England Biolabs). To ensure correct sequence the constructs were sequenced (Genewiz) and tested with different restriction enzymes in combination with gel electrophoresis to measure length and conformation of the gene. cRNA for injection of all constructs was prepared from linearized DNA using the T7 mMessage mMachine transcription kit (Ambion) according to the manufactures instructions.” left out
as §5, §6

In another series the test system is intact guinea pig hearts. Kind of series: Restoration of QT interval in intact hearts with E4031-induced Long QT. The following applies: E4031. An excerpt:
Long QT syndrome was induced in intact guinea pig hearts by administration of the drug E4031, a HERG channel blocker.

Another series in a line: in vitro. The following applies: human, Caco-2.

In general, efflux ratio refers to the permeability from basolateral to apical divided by that in the opposite direction, in the common usage.

Take `CCCCC/C=C\C/C=C\C/C=C\C/C=C\CCCCN` [AA+, arachidonyl amine]: the “ΔV1/2 ± SEM (G(V) shift)” value on Kv7.1/KCNE1 (70 μM, pH 7.4) was “+22.6 ± 1.9 mV”; at Kv7.1/KCNE1 (70 μM, pH 7.4, listed as arachidonyl amine), “+22.6±1.9 mV”; at Kv7.1 (Kv7.1, 70 μM, pH 7.4) it was “+9.7 ± 2.1 mV”; at Kv7.1 (Kv7.1, 70 μM, pH 7.4, listed as Arachidonyl amine), “+9.7±2.1 mV”; on Kv7.1 (Kv7.1, 70 μM, pH 7.4, listed as arachidonyl amine), “+9.7±2.1 mV”. Further, the “G(V) shift of a representative cell (control curve shifted)” value at Kv7.1/KCNE1 (Kv7.1/KCNE1, 70 μM, pH 7.4) was “+28 mV”. For the same molecule, the “G(V) shift” value on Kv7.1/KCNE1 (Kv7.1/KCNE1, pH 7) is recorded as “about +25 mV”. Also, the Kv7.1 channel inactivation result on Kv7.1 (Kv7.1) is given as “induced Kv7.1 channel inactivation”.
As for `CC/C=C\C/C=C\C/C=C\C/C=C\C/C=C\C/C=C\CCC(=O)O` [DHA, 4,7,10,13,16,19-all-cis-docosahexaenoic acid], the “c0.5 (pH-dependence of the G(V) shift)” value on Kv7.1/KCNE1 (Kv7.1/KCNE1, 70 μM) is on record as 3.3*10^−9; on Kv7.1 (Kv7.1, 70 μM) it was 1.8*10^−8. Also, the “ΔVmax (pH-dependence of the G(V) shift)” value at Kv7.1/KCNE1 (Kv7.1/KCNE1, 70 μM) is −26.6 mV; at Kv7.1 (Kv7.1, 70 μM), −30.7 mV. The “G(V) shift of a representative cell (control curve shifted)” value at Kv7.1/KCNE1 (Kv7.1/KCNE1, 70 μM, pH 9) is −35 mV; on KCNE1-Kv7.1-Kv7.1 (KCNE1-Kv7.1-Kv7.1), “+7 mV”; at KCNE1-Kv7.1 (KCNE1-Kv7.1), “+5.5 mV”. Moreover, the pKa on Kv7.1/KCNE1 (Kv7.1/KCNE1, 70 μM) was 8.5; at Kv7.1 (human, Xenopus laevis oocytes expressing human Kv7.1, Kv7.1, 70 μM, read-out: apparent pKa as reported by the shift of the G(V) relation) it was ~7.7. In addition, the maximal conductance entry at Kv7.1 (Kv7.1) was “without affecting maximal conductance”. Besides, the “G(V) shift” value is listed as −3.0±0.5 mV on Kv7.1 (Kv7.1, 7 μM); “about −30 mV” on Kv7.1 (Kv7.1, 70 μM, pH 10); “abolishes the DHA effect” on Kv7.1 (Kv7.1, external pH 6.5). The “G(V) shift predicted from the concentration-response curve” value at Kv7.1 (Kv7.1, 35 μM DHA alone) is listed as −6.5 mV. Besides, on Kv7.1 (Kv7.1, pH 7.4), the “estimated maximum shift ΔVmax (concentration dependence)” value was −15.8±2.3 mV and −15.8 mV. Further, the EC50 is 50 ± 20 µM on Kv7.1 (Kv7.1, pH 7.4, read-out: c0.5, concentration causing 50% of the maximum shift) and 10 µM at Kv7.1 (Kv7.1, pH 9.0, read-out: C0.5 (concentration-response)). For the same molecule, the “ΔVmax (concentration-response)” value on Kv7.1 (Kv7.1, pH 9.0) is −27.7 mV.
Consider `CC/C=C\C/C=C\C/C=C\C/C=C\C/C=C\C/C=C\CCC(=O)NCC(=O)O` [DHA-Gly, docosahexaenoyl glycine], for which, at Kv7.1/KCNE1 (Kv7.1/KCNE1), the “apparent pKa lower than that of DHA” value is “about 1.5 pH unit”. For the same molecule, the pKa on Kv7.1/KCNE1 (Kv7.1/KCNE1, 70 μM) came out at 6.9. In the series with intact guinea pig hearts, the “concentration able to restore the QT intervals” value is 10 µM. Moreover, the efflux ratio in “in vitro” was 3.6.
For `CC/C=C\C/C=C\C/C=C\C/C=C\C/C=C\C/C=C\CCC(=O)OC` [DHA-me, 4,7,10,13,16,19-all-cis-docosahexaenoic acid methyl ester], the “ΔV1/2 ± SEM (G(V) shift)” value is on record as “+5.7 ± 0.9 mV” on KCNE1-Kv7.1-Kv7.1 (pH 7.4); “+8.2 ± 2.7 mV” on KCNE1-Kv7.1-Kv7.1 (pH 9.0); “+5.0 ± 1.3 mV” at KCNE1-Kv7.1 (pH 7.4); “+3.6 ± 2.6 mV” at KCNE1-Kv7.1 (pH 9.0); “+2.8 ± 2.5 mV” at Kv7.1 (Kv7.1, 70 μM, pH 7.4); “no effect” on Kv7.1 (Kv7.1, 70 μM, pH 7.4, listed as DHA methyl ester). On Kv7.1 (Kv7.1, 70 μM, pH 7.4, listed as DHA-Me), the “ΔV1/2 ± SEM (G(V) shift)” value is “+2.8±2.5 mV”.
As to `CCCCC/C=C\C/C=C\CCCCCCCC(=O)NCC(=O)O` [Lin-Gly, linoleoyl-glycine], on Kv7.1 (compared among NAA, Lin-Gly, Ste-Gly, DHA-Gly, TTA, HTA), the Kv7.1 affinity result is given as “lowest affinity”.
`CCCCCCCC/C=C\CCCCCCCC(=O)O` [OA, oleic acid]: the “ΔV1/2 ± SEM (G(V) shift)” value at Kv7.1 (Kv7.1, 70 μM, pH 7.4) was −1.0±0.5 mV; on Kv7.1 (Kv7.1, 70 μM, pH 7.4, listed as Oleic acid) it was “no effect”.
`CC(C)NCC(O)COc1cccc2ccccc12` (centres unmarked) [propranolol, reference compound]: the “permeability coefficient (Papp)” value in the series on Caco-2 cells is 20×10^−6 cms^−1.
